We go through four compounds from PMC8847198, “The Influence of AA29504 on GABAA Receptor Ligand Binding Properties and Its Implications on Subtype Selectivity” (Neurochemical Research, 2021).

In series [1] the target is T1, recombinant α6β3 GABAARs expressed in HEK293 cells (Rattus norvegicus, UniProt P30191+P63079).
T1 construct: expressed in transfected cells; host or cells: HEK293, transient calcium phosphate transfection, pRK5 plasmids
The experiment in a line: GABA-independent displacement of [^3H]EBOB binding, recombinant α6β3. How it is done:
(§1) Triplicate samples were incubated with shaking for 2 h. […] The incubations were terminated as described above for [^3H]muscimol binding.
(§2) GraphPad Prism software (GraphPad, San Diego, CA, USA) was used for nonlinear least squares curve-fitting and statistical testing of association, dissociation, saturation binding and radioligand displacement data. The association and dissociation curves were used for the estimation of association (Kon) and dissociation (Koff) rate constants. Saturation binding curves were used for the estimation of total number of high-affinity binding sites (Bmax), and equilibrium dissociation constants (KD). […] Statistical comparisons were made with One-way ANOVA, Two-way ANOVA or Brown-Forsythe and Welch ANOVA followed by the relevant (Tukey’s or Dunnett’s) post hoc tests for multiple comparisons. […] The study samples were not randomized and analysis was performed in a parallel unblinded mode.

For series [2], the target named is T2, recombinant α6β3δ GABAARs expressed in HEK293 cells (Rattus norvegicus, UniProt P18506+P30191+P63079).
T2 construct: expressed in transfected cells; host or cells: HEK293, transient calcium phosphate transfection, pRK5 plasmids, 1:1:1
Description: GABA-independent displacement of [^3H]EBOB binding, recombinant α6β3δ. On the procedure:
as §1, §2

Series [3] addresses T3, recombinant α6β3γ2 GABAARs expressed in HEK293 cells (Rattus norvegicus, UniProt P18508+P30191+P63079).
T3 construct: expressed in transfected cells; host or cells: HEK293, transient calcium phosphate transfection, pRK5 plasmids, 1:1:1
The experiment in a line: GABA-independent displacement of [^3H]EBOB binding, recombinant α6β3γ2. How it is done: as §1, §2

In series [4] the test system is native GABAARs expressed in WT mice forebrain membranes. The experiment in a line: AA29504 effect on [^3H]muscimol binding, WT forebrain membranes. The settings on record: increasing concentrations of AA29504, 15 min, 22 °C. Also on record: species or system mouse. How it is done: (§3) WT and δKO forebrain membranes were prepared using the method of Squires and Saederup as modified by Uusi-Oukari et al.. Homogenized and washed membranes were suspended in 10 mM Tris–HCl, pH 7.4 and stored at -70 °C.

Series [5] deals with native GABAARs expressed in δKO mice forebrain membranes. Description: AA29504 effect on [^3H]muscimol binding, δKO forebrain membranes. The settings on record: increasing concentrations of AA29504, 15 min, 22 °C. Also on record: species or system mouse. How it is done:
as §3

Series [6] deals with native GABAARs expressed in WT mice forebrain membranes. The experiment in a line: AA29504 effect on [^3H]GABA binding, WT forebrain membranes. To be noted: increasing concentrations of AA29504, 15 min, 22 °C. Also on record: species or system mouse. On the procedure: as §3
Series [7] deals with native GABAARs expressed in δKO mice forebrain membranes. The experiment in a line: AA29504 effect on [^3H]GABA binding, δKO forebrain membranes. Also on record: species or system mouse. To be noted: increasing concentrations of AA29504, 15 min, 22 °C. How it is done: as §3
The subject of series [8] is GABAARs in WT forebrain membranes. Description: [^3H]muscimol association and dissociation, WT forebrain membranes. The class given is binding, mouse. On the procedure:
as §3
(§4) The effect of AA29504 on the association and dissociation of [^3H]muscimol binding was measured essentially as described by Benkherouf et al.. Saturation analysis of [^3H]muscimol was performed essentially as described by Uusi-Oukari and Korpi. Triplicate samples of the membranes were incubated in assay buffer with a concentration series of [^3H]muscimol (1–50 nM) at room temperature (22 °C) for 60 min in the absence and presence of 10 µM AA29504. […] .
(§5) GraphPad Prism software (GraphPad, San Diego, CA, USA) was used for nonlinear least squares curve-fitting and statistical testing of association, dissociation, saturation binding and radioligand displacement data. The association and dissociation curves were used for the estimation of association (Kon) and dissociation (Koff) rate constants. Saturation binding curves were used for the estimation of total number of high-affinity binding sites (Bmax), and equilibrium dissociation constants (KD). […] . Statistical comparisons were made with One-way ANOVA, Two-way ANOVA or Brown-Forsythe and Welch ANOVA followed by the relevant (Tukey’s or Dunnett’s) post hoc tests for multiple comparisons. […] . The study samples were not randomized and analysis was performed in a parallel unblinded mode.

For series [9], the system named is GABAARs in δKO forebrain membranes. The experiment in a line: [^3H]muscimol association and dissociation, δKO forebrain membranes. The format is binding, mouse. On the procedure:
as §3, §4, §5

On the set-up of series [10]: method as in PMID 20060846, PMID 22579928, PMID 20957350. The settings on record: 60 min post 2 mg/kg, s.c. in mice; cited from earlier work.
Series [11] deals with recombinant α6β2δ GABAARs expressed in HEK293 cells (Rattus norvegicus, UniProt P18506+P30191+P63138). The experiment in a line: AA29504 effect on [^3H]muscimol binding, recombinant α6β2δ. To be noted: HEK293, 4 concentrations of AA29504.
Description: (§6) Human embryonic kidney (HEK) 293 cells were maintained at + 37 °C/10% CO2 in Dulbecco’s Modified Eagle’s Medium (DMEM) (Gibco, Gaithersburg, MD, USA), supplemented with 3.7 g/L NaHCO3, 10% Fetal Bovine Serum (FBS) (Gibco, Gaithersburg, MD, USA), 50,000 U/L penicillin and 50 mg/L streptomycin (Sigma-Aldrich, St Louis, MO, USA). The cells were divided and plated on 10 cm culture dishes for binding assays 24 h before transfection. HEK293 cells were transfected with rat cDNAs (α1, α6, β2, β3, γ2S, δ) in pRK5 plasmids [39] under the control of cytomegalovirus (CMV) promoter using calcium phosphate transfection method essentially as described by Lüddens and Korpi [40]. The plasmids were used in 1:1 and 1:1:1 ratios for transfections containing 2 [(α6) + (β3)] or 3 [(α1 or α6) + (β2 or β3) + (γ2S or δ)] different subunits, respectively (5 μg of each plasmid DNA for a 10 cm plate). The cells were incubated at 37 °C/10% CO2 for 24 h post-transfection. Old culture medium was replaced with fresh medium and the incubation resumed for another 24 h. The cells were harvested 48 h post-transfection. […]
(§7) Individually pooled triplicate membrane samples (3 total binding and 3 non‐specific binding) were incubated with shaking for 15 min. The effect of AA29504 on binding was determined in the presence of various concentrations of AA29504. […]
In series [12] the target is recombinant α1β2γ2 GABAARs expressed in HEK293 cells (Rattus norvegicus, UniProt P18508+P62813+P63138). Description: AA29504 effect on [^3H]muscimol binding, recombinant α1β2γ2. To be noted: α1β2γ2, HEK293, 4 concentrations of AA29504.
Description: as §6, §7
The target in series [13] is recombinant α6β2γ2 GABAARs expressed in HEK293 cells (Rattus norvegicus, UniProt P18508+P30191+P63138). The experiment in a line: AA29504 effect on [^3H]muscimol binding, recombinant α6β2γ2. The settings on record: α6β2γ2, HEK293, 4 concentrations of AA29504.
Description: as §6, §7
Details of series [14]: method as in PMID 31736685. The settings on record: in vivo; cited from earlier work.
In series [15] the test system is native GABAARs expressed in WT forebrain membranes. The class given is binding, mouse. To be noted: read-out: IC50 of agonist-induced [^3H]EBOB displacement. On the procedure: as §3, §1, §2
For series [16], the system named is native GABAARs expressed in δKO forebrain membranes. The format is binding, mouse. The settings on record: read-out: IC50 of agonist-induced [^3H]EBOB displacement. On the procedure:
as §3, §1, §2

Series [17] concerns the target GABAARs in WT mouse forebrain membranes. Description: Saturation analysis of [^3H]muscimol binding, WT forebrain membranes. How it is done: as §3, §4, §5
Series [18] has as its target GABAARs in δKO mouse forebrain membranes. The experiment in a line: Saturation analysis of [^3H]muscimol binding, δKO forebrain membranes. The settings on record: one-site model. On the procedure: as §3, §4
as §5, with “The study samples were not randomized and analysis was performed in a parallel unblinded mode.” left out

[19] abbreviates: 10 µM AA29504, 2 nM [^3H]muscimol, control binding without AA29504.
Where [20] appears, read: 2 nM [^3H]muscimol, 22 °C, absence of AA29504.

Structures are written as SMILES. Read-outs that look alike come from different tables or passages of the source. Bounds are passed on as bounds.

T3 sequence (P30191 20-453): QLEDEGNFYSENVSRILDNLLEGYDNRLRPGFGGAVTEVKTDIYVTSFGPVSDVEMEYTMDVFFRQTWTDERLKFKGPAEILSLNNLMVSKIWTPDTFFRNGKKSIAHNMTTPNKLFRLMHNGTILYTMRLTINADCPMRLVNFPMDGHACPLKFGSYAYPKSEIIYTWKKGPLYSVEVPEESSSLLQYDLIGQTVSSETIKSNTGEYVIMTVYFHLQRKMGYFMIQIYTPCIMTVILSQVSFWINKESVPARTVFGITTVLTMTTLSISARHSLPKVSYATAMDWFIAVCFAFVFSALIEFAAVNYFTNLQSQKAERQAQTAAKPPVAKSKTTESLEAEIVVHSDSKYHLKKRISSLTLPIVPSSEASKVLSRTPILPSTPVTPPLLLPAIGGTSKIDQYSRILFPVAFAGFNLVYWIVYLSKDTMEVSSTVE
T3 sequence (P63079 26-473): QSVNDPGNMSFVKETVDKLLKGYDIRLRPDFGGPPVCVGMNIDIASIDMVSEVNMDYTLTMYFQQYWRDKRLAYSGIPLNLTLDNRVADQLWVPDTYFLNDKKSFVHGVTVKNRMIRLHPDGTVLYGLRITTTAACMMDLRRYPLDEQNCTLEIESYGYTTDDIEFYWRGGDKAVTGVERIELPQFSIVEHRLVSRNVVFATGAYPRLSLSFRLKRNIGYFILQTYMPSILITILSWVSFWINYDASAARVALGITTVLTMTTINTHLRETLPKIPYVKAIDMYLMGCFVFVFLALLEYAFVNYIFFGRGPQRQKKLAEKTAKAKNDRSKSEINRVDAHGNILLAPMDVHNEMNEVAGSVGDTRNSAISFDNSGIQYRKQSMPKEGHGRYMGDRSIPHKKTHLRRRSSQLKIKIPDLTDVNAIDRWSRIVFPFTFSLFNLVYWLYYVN
T3 sequence (P18508 39-466): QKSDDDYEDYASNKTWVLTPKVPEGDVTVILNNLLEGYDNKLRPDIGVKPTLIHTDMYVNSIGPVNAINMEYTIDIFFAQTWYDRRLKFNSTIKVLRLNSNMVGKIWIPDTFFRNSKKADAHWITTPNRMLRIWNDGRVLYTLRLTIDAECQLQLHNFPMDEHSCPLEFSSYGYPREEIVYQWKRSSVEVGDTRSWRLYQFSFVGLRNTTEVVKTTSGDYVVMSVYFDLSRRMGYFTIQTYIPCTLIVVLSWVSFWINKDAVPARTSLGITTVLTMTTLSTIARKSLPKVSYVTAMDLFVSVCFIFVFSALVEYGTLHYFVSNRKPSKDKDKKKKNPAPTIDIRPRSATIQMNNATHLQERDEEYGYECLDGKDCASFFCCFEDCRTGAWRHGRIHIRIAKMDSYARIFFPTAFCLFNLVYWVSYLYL
T2 sequence (P30191 20-453): as the sequence (P30191 20-453) above
T2 sequence (P63079 26-473): as the sequence (P63079 26-473) above
T2 sequence (P18506 17-449 limits assumed): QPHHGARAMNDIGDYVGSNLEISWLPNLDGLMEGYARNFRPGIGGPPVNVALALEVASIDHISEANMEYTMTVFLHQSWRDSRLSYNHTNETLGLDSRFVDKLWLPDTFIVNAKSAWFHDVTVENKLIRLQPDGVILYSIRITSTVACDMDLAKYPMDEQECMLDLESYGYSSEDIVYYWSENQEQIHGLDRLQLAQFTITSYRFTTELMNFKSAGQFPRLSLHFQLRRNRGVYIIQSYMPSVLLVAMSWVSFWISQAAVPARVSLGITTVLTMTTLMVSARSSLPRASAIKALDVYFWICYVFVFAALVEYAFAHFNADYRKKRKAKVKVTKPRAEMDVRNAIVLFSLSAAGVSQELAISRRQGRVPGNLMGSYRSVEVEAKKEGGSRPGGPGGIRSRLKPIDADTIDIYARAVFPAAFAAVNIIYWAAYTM
T1 sequence (P30191 20-453): as the sequence (P30191 20-453) above
T1 sequence (P63079 26-473): as the sequence (P63079 26-473) above
recombinant α6β2γ2 GABAARs expressed in HEK293 cells, sequence (P30191 20-453): as the sequence (P30191 20-453) above
recombinant α6β2γ2 GABAARs expressed in HEK293 cells, sequence (P63138 25-474 limits assumed): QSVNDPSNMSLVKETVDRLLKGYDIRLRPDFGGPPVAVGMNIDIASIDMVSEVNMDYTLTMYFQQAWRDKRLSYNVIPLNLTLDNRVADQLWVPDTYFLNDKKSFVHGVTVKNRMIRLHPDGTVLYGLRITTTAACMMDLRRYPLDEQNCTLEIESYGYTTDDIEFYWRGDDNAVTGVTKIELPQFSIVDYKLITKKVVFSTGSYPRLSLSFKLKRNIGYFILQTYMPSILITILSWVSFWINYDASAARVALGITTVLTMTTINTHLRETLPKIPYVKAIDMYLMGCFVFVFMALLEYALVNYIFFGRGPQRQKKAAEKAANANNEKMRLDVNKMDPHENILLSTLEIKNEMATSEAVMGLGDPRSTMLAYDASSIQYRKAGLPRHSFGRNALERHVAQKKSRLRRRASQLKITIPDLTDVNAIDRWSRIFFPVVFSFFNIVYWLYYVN
recombinant α6β2γ2 GABAARs expressed in HEK293 cells, sequence (P18508 39-466): as the sequence (P18508 39-466) above
recombinant α6β2δ GABAARs expressed in HEK293 cells, sequence (P30191 20-453): as the sequence (P30191 20-453) above
recombinant α6β2δ GABAARs expressed in HEK293 cells, sequence (P63138 25-474 limits assumed): as the sequence (P63138 25-474 limits assumed) above
recombinant α6β2δ GABAARs expressed in HEK293 cells, sequence (P18506 17-449 limits assumed): as the sequence (P18506 17-449 limits assumed) above
recombinant α1β2γ2 GABAARs expressed in HEK293 cells, sequence (P62813 28-455): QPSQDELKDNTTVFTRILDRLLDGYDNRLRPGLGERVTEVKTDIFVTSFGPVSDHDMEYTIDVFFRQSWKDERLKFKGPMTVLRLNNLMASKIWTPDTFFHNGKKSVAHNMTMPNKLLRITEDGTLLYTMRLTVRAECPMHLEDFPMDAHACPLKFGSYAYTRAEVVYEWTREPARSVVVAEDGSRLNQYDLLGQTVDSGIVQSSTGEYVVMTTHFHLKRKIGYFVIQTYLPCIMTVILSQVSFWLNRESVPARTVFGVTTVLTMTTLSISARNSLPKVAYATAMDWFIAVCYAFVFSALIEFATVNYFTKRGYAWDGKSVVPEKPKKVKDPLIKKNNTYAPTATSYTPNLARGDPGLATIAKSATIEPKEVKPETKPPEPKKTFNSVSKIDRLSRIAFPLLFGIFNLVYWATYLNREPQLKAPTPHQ
recombinant α1β2γ2 GABAARs expressed in HEK293 cells, sequence (P63138 25-474): as the sequence (P63138 25-474 limits assumed) above
recombinant α1β2γ2 GABAARs expressed in HEK293 cells, sequence (P18508 39-466): as the sequence (P18508 39-466) above

In the case of `CCOC(=O)Nc1ccc(NCc2c(C)cc(C)cc2C)cc1N` [AA29504, [2-amino-4-(2,4,6-trimethylbenzylamino)-phenyl]-carbamic acid ethyl ester], the “concentration at which GABA-independent radioligand displacement was evident” value in series [1] (α6β3, 1 nM [^3H]EBOB) is recorded as ≥ 100 nM; in series [2] (1 nM [^3H]EBOB), ≥ 100 nM; in series [3] (α6β3γ2, 1 nM [^3H]EBOB) it was ≥ 300 nM. Besides, the half-maximal inhibitory concentration (IC50) (in general, the concentration needed to halve the response being measured) stood at 400 ± 20 nM in series [1] (α6β3, HEK293, 1 nM [^3H]EBOB, no GABA); 1100 ± 200 nM in [2] (HEK293, 1 nM [^3H]EBOB, no GABA); 11100 ± 1400 nM in [3] (α6β3γ2, HEK293, 1 nM [^3H]EBOB, no GABA). Moreover, the “effect on 2 nM [^3H]muscimol binding” value is reported as “concentration-dependent stimulation” in series [4]; “concentration-dependent stimulation” in [5]; “no significant effect” in series [11]; “stimulated” in series [12]; “stimulated” in series [13]. The “effect on 5 nM [^3H]GABA binding” value in series [6] and in series [7] was “concentration-dependent stimulation” throughout. Further, the “maximal increased specific [^3H]muscimol binding” value is given as 166 ± 5 % of control in series [8] (setting [19]) and 240 ± 23 % of control binding in series [9] (setting [19]). Also, the brain concentration in series [10] was 1000 nM.
`O=C(Nc1c(-c2cccs2)nc2ccccn12)c1ccc(Cl)cc1` [DS2, 4-chloro-N-[2-(2-thienyl)imidazo[1,2-a]pyridin-3-yl]benzamide]: the brain bioavailability result in [14] is reported as “limited brain bioavailability”.
`Oc1noc2c1CCNC2` [THIP, 4,5,6,7-tetrahydroisoxazolo[5,4-c]pyridin-3-ol]: the half-inhibitory concentration (IC50) was 200000 ± 110000 nM in [15] and 220000 ± 50000 nM in series [16].
In the case of `[3H]C([3H])(N)c1cc(=O)[nH]o1` [[^3H]muscimol], the “association rate constant Kon” value in [8] (setting [20]) was 2.2 ± 0.3 × 10^8 M^−1 × min^−1; in series [9] (setting [20]) it was 5.9 ± 0.6 × 10^8 M^−1 × min^−1. Moreover, the “dissociation rate constant Koff” value was 0.00633 ± 0.00033 s⁻¹ in [8] (setting [20]) and 0.011 ± 0.0005 s⁻¹ in [9] (setting [20]). Also, the equilibrium dissociation constant (Kd) (usually a measure of binding affinity in units of concentration) in [17] (with AA29504 (10 µM), 22 °C, one-site model, read-out: KD) is 23 ± 4 nM; in series [17] (without AA29504, 22 °C, read-out: KD, site (1) of two-site model), 4.1 ± 3.6 nM; in series [17] (without AA29504, 22 °C, read-out: KD, site (2) of two-site model (converted)), 40 nM; in [18] (with AA29504 (10 µM), 22 °C) it was 30 ± 3 nM; in series [18] (without AA29504, 22 °C) it was 53 ± 6 nM.
